# What was measured:
# Assay in all cases: combination Emax (second highest fraction inhibited in the dose matrix, 72 h); higher = more inhibition; extreme values may be limits of the assay
# [1] = tested on: 23132-87 (Gastric Carcinoma)
# Method in brief: (§1)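 After 24 hours at 37°C and 5% CO2 in 1536-well plates, cells in DMEM/F12 or RPMI plus 10% FBS received two-drug dose matrices for 72 hours. Viability came from CellTiter-Glo 2.0 luminescence and was scaled as inhibition, anchored at 0 by vehicle wells and at 1 by blank wells. Combination Emax is taken as the second-highest inhibition in the matrix, and Bliss excess as the observed combination effect less EA + EB − EA·EB, with EA and EB the single-agent effects.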
# A2058 (Melanoma) = tested on: A2058 (Melanoma)
# Method in brief: as §1
# [2] = tested on: CAL-120 (Breast Carcinoma)
# Method in brief: as §1
# [3] = tested on: CAL-62 (Thyroid Gland Carcinoma)
# Method in brief: as §1
# [4] = tested on: GP5d (Colorectal Carcinoma)
# Method in brief: as §1
# [5] = tested on: HCT-15 (Colorectal Carcinoma)
# Method in brief: as §1
# [6] = tested on: HSC-39 (Gastric Carcinoma)
# Method in brief: as §1
# [7] = tested on: KE-37 (T-Lymphoblastic Leukemia)
# Method in brief: as §1
# [8] = tested on: LB996-RCC (Kidney Carcinoma)
# Method in brief: as §1
# [9] = tested on: LK-2 (Squamous Cell Lung Carcinoma)
# Method in brief: as §1
# LN-229 (Glioblastoma) = tested on: LN-229 (Glioblastoma)
# Method in brief: as §1
# [10] = tested on: LXF-289 (Lung Adenocarcinoma)
# Method in brief: as §1
# [11] = tested on: OAW-42 (Ovarian Carcinoma)
# Method in brief: as §1
# [12] = tested on: RCM-1 (Colorectal Carcinoma)
# Method in brief: as §1
# [13] = tested on: RERF-GC-1B (Gastric Carcinoma)
# Method in brief: as §1
# [14] = tested on: RKN (Other Solid Carcinomas)
# Method in brief: as §1
# SF268 (Low Grade Glioma) = tested on: SF268 (Low Grade Glioma)
# Method in brief: as §1
# [15] = tested on: SK-PN-DW (Other Solid Carcinomas)
# Method in brief: as §1
# [16] = tested on: TE-8 (Esophageal Squamous Cell Carcinoma)
# Method in brief: as §1
# WM793B (Melanoma) = tested on: WM793B (Melanoma)
# Method in brief: as §1
SMILES,combination Emax [1],combination Emax (A2058 (Melanoma)),combination Emax [2],combination Emax [3],combination Emax [4],combination Emax [5],combination Emax [6],combination Emax [7],combination Emax [8],combination Emax [9],combination Emax (LN-229 (Glioblastoma)),combination Emax [10],combination Emax [11],combination Emax [12],combination Emax [13],combination Emax [14],combination Emax (SF268 (Low Grade Glioma)),combination Emax [15],combination Emax [16],combination Emax (WM793B (Melanoma))
"NC1(C(=O)N[C@@H](CCO)c2ccc(Cl)cc2)CCN(c2ncnc3[nH]ccc23)CC1 [Capivasertib] + CC(=O)c1c(C)c2cnc(Nc3ccc(N4CCNCC4)cn3)nc2n(C2CCCC2)c1=O [Palbociclib] (first compound max 10 µM, 7x7, partner max 10 µM)",0.428,0.638,0.561,0.422,0.648,0.665,0.749,0.76,0.781,0.205,0.376,0.691,0.548,0.383,0.458,0.182,0.452,0.615,0.48,0.548
"NC1(C(=O)N[C@@H](CCO)c2ccc(Cl)cc2)CCN(c2ncnc3[nH]ccc23)CC1 [Capivasertib] + CC(C)n1c(=O)n(C)c2cnc3cc(F)c(-c4ccc(OCCCN5CCCCC5)nc4)cc3c21 [AZD1390] (first compound max 10 µM, 7x7, partner max 0.3 µM)",0.165,0.458,0.454,0.178,0.669,0.312,0.432,0.72,0.645,0.0982,0.104,0.396,0.439,0.253,0.433,0.365,0.272,0.597,0.502,0.438
"NC1(C(=O)N[C@@H](CCO)c2ccc(Cl)cc2)CCN(c2ncnc3[nH]ccc23)CC1 [Capivasertib] + CCN(CCO)CCCOc1ccc2c(Nc3cc(CC(=O)Nc4cccc(F)c4)[nH]n3)ncnc2c1 [AZD2811] (first compound max 10 µM, 7x7, partner max 1 µM)",0.224,0.798,0.49,0.308,0.718,0.394,0.948,1,0.71,0.925,0.211,0.679,0.48,0.197,0.542,0.254,0.416,0.83,0.6,0.527
"NC1(C(=O)N[C@@H](CCO)c2ccc(Cl)cc2)CCN(c2ncnc3[nH]ccc23)CC1 [Capivasertib] + COc1nnc2ccc(N3CCC(c4ccc(OCCN5CCN(C)C(=O)[C@H]5C)cc4)CC3)nn12 [AZD5153] (first compound max 10 µM, 7x7, partner max 1 µM)",0.659,0.882,0.647,0.751,0.873,0.717,0.916,0.905,0.72,0.422,0.344,0.811,0.619,0.613,0.617,0.449,0.488,0.74,0.582,0.616
"NC1(C(=O)N[C@@H](CCO)c2ccc(Cl)cc2)CCN(c2ncnc3[nH]ccc23)CC1 [Capivasertib] + C[C@@H]1COCCN1C2=NC(=NC(=C2)C3(CC3)[S@](=N)(=O)C)C4=C5C=CNC5=NC=C4 [AZD6738] (first compound max 10 µM, 7x7, partner max 10 µM)",0.616,0.805,0.708,0.784,0.829,0.738,1,0.992,0.823,0.675,0.597,0.778,0.644,0.665,0.558,0.272,0.644,0.925,0.706,0.842
"NC1(C(=O)N[C@@H](CCO)c2ccc(Cl)cc2)CCN(c2ncnc3[nH]ccc23)CC1 [Capivasertib] + Cn1cnc2c(F)c(Nc3ccc(Br)cc3Cl)c(C(=O)NOCCO)cc21 [Selumetinib] (first compound max 10 µM, 7x7, partner max 10 µM)",0.396,0.895,0.444,0.557,0.807,0.559,0.852,0.707,0.678,0.467,0.484,0.62,0.548,0.668,0.6,0.479,0.315,0.597,0.624,0.768
"COc1cc2ncnc(Nc3ccc(F)c(Cl)c3)c2cc1OCCCN1CCOCC1 [Gefitinib] + CC(C)n1c(=O)n(C)c2cnc3cc(F)c(-c4ccc(OCCCN5CCCCC5)nc4)cc3c21 [AZD1390] (first compound max 10 µM, 7x7, partner max 0.3 µM)",0.127,0.119,0.14,0,0.281,0.352,0.217,0.357,0.391,0.2,0.0879,0.0907,0.107,0.41,0.265,0.175,0.155,0.184,0.225,0.142
"CS(=O)(=O)CCNCc1ccc(-c2ccc3ncnc(Nc4ccc(OCc5cccc(F)c5)c(Cl)c4)c3c2)o1 [Lapatinib] + C[C@@H](Oc1cc(-c2cnn(C3CCNCC3)c2)cnc1N)c1c(Cl)ccc(F)c1Cl [Crizotinib] (first compound max 10 µM, 7x7, partner max 10 µM)",0.594,0.991,0.734,0.776,0.979,0.925,0.981,0.975,0.98,0.888,0.334,1,0.732,0.865,0.951,0.294,0.902,0.938,0.71,0.973
"CC(=O)c1c(C)c2cnc(Nc3ccc(N4CCNCC4)cn3)nc2n(C2CCCC2)c1=O [Palbociclib] + CC1(C)CCC(CN2CCN(c3ccc(C(=O)NS(=O)(=O)c4ccc(NCC5CCOCC5)c([N+](=O)[O-])c4)c(Oc4cnc5[nH]ccc5c4)c3)CC2)=C(c2ccc(Cl)cc2)C1 [Venetoclax] (first compound max 10 µM, 7x7, partner max 1 µM)",0.17,0.0912,0.134,0.151,0.31,0.526,0.633,0.776,0.318,0.102,0.0912,0.225,0.105,0.394,0.0488,0.102,0.254,0.257,0.286,0.327
"CC(=O)c1c(C)c2cnc(Nc3ccc(N4CCNCC4)cn3)nc2n(C2CCCC2)c1=O [Palbociclib] + Cc1c2c(nn1C)CSCc1cc(n(C)n1)CSc1cc(c3ccccc3c1)OCCCc1c(C(=O)O)n(C)c3c-2c(Cl)ccc13 [AZD5991] (first compound max 10 µM, 7x7, partner max 1 µM)",0.305,0.753,0.134,0.308,0.881,0.532,0.995,0.687,0.397,0.33,0.228,0.6,0.223,0.327,0.784,0.151,0.362,0.787,0.427,0.432
"CC(=O)c1c(C)c2cnc(Nc3ccc(N4CCNCC4)cn3)nc2n(C2CCCC2)c1=O [Palbociclib] + Cn1cnc2c(F)c(Nc3ccc(Br)cc3Cl)c(C(=O)NOCCO)cc21 [Selumetinib] (first compound max 10 µM, 7x7, partner max 10 µM)",0.128,0.47,0.186,0.457,0.768,0.523,0.667,0.71,0.285,0.5,0.277,0.297,0.168,0.63,0.333,0.399,0.218,0.261,0.383,0.585
"COc1cccc(OCCCN)c1-c1cc(Nc2cnc(C#N)cn2)n[nH]1 [Prexasertib] + CCc1c2c(nc3ccc(O)cc13)-c1cc3c(c(=O)n1C2)COC(=O)[C@]3(O)CC [SN-38] (first compound max 1 µM, 7x7, partner max 0.3 µM)",0.898,0.924,0.85,0.884,0.949,0.993,1,1,0.947,0.932,0.767,0.787,0.827,0.887,0.994,0.966,0.937,0.953,0.972,0.896
"C[C@@H](c1ccc2nccn2c1)n1nnc2ncc(-c3cnn(C)c3)nc21 [Savolitinib] + CC1(C)CCC(CN2CCN(c3ccc(C(=O)NS(=O)(=O)c4ccc(NCC5CCOCC5)c([N+](=O)[O-])c4)c(Oc4cnc5[nH]ccc5c4)c3)CC2)=C(c2ccc(Cl)cc2)C1 [Venetoclax] (first compound max 1 µM, 7x7, partner max 1 µM)",0.147,0.107,0.0877,0.142,0.141,0.12,0.197,0.113,0.0725,0.165,0.0841,0.16,0.188,0.121,0.128,0.195,0.104,0.221,0.229,0.137
